Test results from US9771389B2, “Tylosin derivatives and method for preparation thereof” (BAYER ANIMAL HEALTH GMBH, priority 2013, dated 2017).

Assays:
[1] = tested on: M. hemolytica KB346 (Tilmicosin-low sensitivity strain); test: Paper disc assay, M. hemolytica KB346; type: cell-based, Mannhemia hemolytica
Protocol: (§1) (1) Antibacterial activities against Mannheimia and Pasteurella were determined by the following steps: • 1) M. hemolytica KB345 (Tilmicosin-sensitivity strain) and M. hemolytica KB346 (Tilmicosin-low sensitivity strain) were provided. KB 345 strain stored at −80° C. was seeded to BHIB agar medium (10 mL) by using Microbank beads (Pro-Lab) and platinum nail. After statically incubating the KB 345 strain for 24 hours at 37° C., it was seeded to maintaining slant BHIB agar medium (7 mL) by using platinum loop, further statically incubated for 24 hours at 37° C. to obtain slant. One platinum loop of KB 345 strain stored at the slant was inoculated into a large test tube charged with BHIB liquid medium (10 mL) and then incubated for 24 hours at 37° C. with shaking. • 2) A paper disc (ADVANTEC, Φ:6 mm) was impregnated with a solution of test compound and dried under reduced pressure. • 3) To a melted BHIB agar medium was inoculated 1% of the broth obtained from step 1) above to prepare a test plate. After the medium set, the paper disc prepared in step 2) above was put on the plate and it was incubated at 37° C. • 4) After one day, the inhibition zone diameter and clarity (A to E) were determined. For KB346 strain, the same procedures were repeated.

[2] = tested on: M. hemolytica KB345 (Tilmicosin-sensitivity strain); test: Paper disc assay, M. hemolytica KB345; type: cell-based, Mannhemia hemolytica
Protocol: as §1

[3] = tested on: Micrococcus luteus ATCC9341; test: Paper disc assay, Micrococcus luteus; type: cell-based; conditions: column 1
Protocol: (§2) (2) Antibacterial activities against other bacteria were determined with Micrococcus luteus ATCC9341 (1), Bacillus subtilis […] (s), Escherichia coli NIHJ (c), Xanthomonas campestris KB88 (X), Mucor racemosus IFO 4581 (Mu) and Candida albicans ATCC 64548 (Ca).
(§3) Bacillus subtilis ATCC6633 was incubated in Davis synthetic medium and then the seed broth was combined with the medium in the ratio of 1:99 to obtain a test plate. Micrococcus luteus ATCC9341, Escherichia coli NIHJ and Xanthomonas campestris KB88 were respectively incubated in Nutrient agar medium and inoculated at 0.2%, 0.5% and 1.0%. Mucor racemosus IFO 4581 and Candida albicans ATCC 64548 were respectively incubated in GY agar medium and then inoculated at 0.3% and 0.2%.
(§4) A paper disc (ADVANTEC, Φ:6 mm) was impregnated with a solution of test compound and dried under reduced pressure. The paper disc was put on the test plate and it was incubated for 24 hours at 37° C. After incubation, the inhibition zone diameter and clarity (A to E) were determined.

[4] = tested on: Xanthomonas campestris KB88; test: Paper disc assay, Xanthomonas campestris; type: cell-based; conditions: X
Protocol: as §2, §3, §4

[5] = tested on: Bacillus subtilis ATCC6633; test: Paper disc assay, Bacillus subtilis; type: cell-based; conditions: S
Protocol: as §2, §3, §4

| SMILES | Inhibition zone ([1]; 100 mg/6 mm disk, Table 3) [mm] | Inhibition zone ([2]; 30 mg/6 mm disk, Table 2) [mm] | Inhibition zone ([1]; 30 mg/6 mm disk, Table 5) [mm] | Inhibition zone ([1]; 100 mg/6 mm disk, Table 5) [mm] | Inhibition zone ([2]; 10 mg/6 mm disk, Table 4) [mm] | Inhibition zone ([2]; 30 mg/6 mm disk, Table 4) [mm] | Inhibition zone ([2]; 100 mg/6 mm disk, Table 4) [mm] | further results |
| --- | --- | --- | --- | --- | --- | --- | --- | --- |
| CC[C@H]1OC(=O)C[C@@H](O)[C@H](C)[C@@H](O[C@@H]2O[C@H](C)[C@@H](O)[C@H](N(C)C)[C@H]2O)[C@@H](CC=O)C[C@@H](C)C(=O)/C=C/C(C)=C/[C@@H]1CO[C@@H]1O[C@H](C)[C@@H](O)[C@@H](OC)[C@H]1OC [YT6, Desmycosin] | 21.0 | 10.5 | – | – | – | – | – | Inhibition zone ([1]; 3 mg/6 mm disk, Table 3): 8.5 mm; Inhibition zone ([1]; 10 mg/6 mm disk, Table 3): 13.5 mm; Inhibition zone ([1]; 30 mg/6 mm disk, Table 3): 17.5 mm |
| CCC1OC(=O)CC(O)C(C)C(OC2OC(C)C(O)C(N(C)C)C2O)C(CCCl)CC(C)C(=O)C=CC(C)=CC1COC1OC(C)C(O)C(OC)C1OC (stereo not drawn) [YT8, 20-chloro-20-deoxodesmycosin] | 14.5 | 18.0 | – | – | – | – | – | Inhibition zone ([1]; 30 mg/6 mm disk, Table 3): 11.0 mm; Inhibition zone ([2]; 10 mg/6 mm disk, Table 2): 12.5 mm; Inhibition zone ([2]; 100 mg/6 mm disk, Table 2): 20.0 mm |
| CCC1OC(=O)CC(O)C(C)C(OC2OC(C)C(O)C(N(C)C)C2O)C(CCN=[N+]=[N-])CC(C)C(=O)C=CC(C)=CC1COC1OC(C)C(O)C(OC)C1OC (stereo not drawn) [YT11, 20-azido-20-deoxodesmycosin] | 11.0 | 16.0 | – | – | – | – | – | Inhibition zone ([2]; 3 mg/6 mm disk, Table 2): 10.0 mm; Inhibition zone ([2]; 10 mg/6 mm disk, Table 2): 13.0 mm; Inhibition zone ([2]; 100 mg/6 mm disk, Table 2): 18.0 mm |
| CC[C@H]1OC(=O)C[C@@H](O)[C@H](C)[C@@H](O[C@@H]2OC(C)[C@@H](O)C(N(C)C)C2O)[C@@H](CCn2cc(-c3ccc(N(C)C)cc3)nn2)C[C@@H](C)C(=O)/C=C/C(C)=C/[C@@H]1CO[C@@H]1OC(C)[C@@H](O)C(OC)C1OC (stereo partly drawn) [YT29, 20-(4-(4-dimethylaminophenyl)-1H-1,2,3-triazol-1-yl)-20-deoxodesmycosin] | – | – | – | – | – | – | – | Inhibition zone ([3]; 0.1 mg/6 mm disc): 11 mm; Inhibition zone ([3]; 1 mg/6 mm disc): 19.5 mm; Inhibition zone ([3]; 10 mg/6 mm disc): 25.5 mm; Inhibition zone ([4]; 0.1 mg/6 mm disc): 7 mm; Inhibition zone ([4]; 1 mg/6 mm disc): 15 mm; Inhibition zone ([4]; 10 mg/6 mm disc): 24 mm; Inhibition zone ([5]; 0.1 mg/6 mm disc): 7 mm; Inhibition zone ([5]; 1 mg/6 mm disc): 10 mm; Inhibition zone ([5]; 10 mg/6 mm disc): 15 mm |
| CC[C@H]1OC(=O)C[C@@H](O)[C@H](C)[C@@H](O[C@@H]2O[C@H](C)[C@@H](O)[C@H](N(C)C)[C@H]2O)[C@@H](CC=O)C[C@@H](C)C(=O)/C=C/C(C)=C/[C@@H]1CO [YT106, 5-O-mycaminosyltylonolide] | – | – | 13.0 | 17.0 | 8.5 | 12.5 | 15.0 | Inhibition zone ([1]; 10 mg/6 mm disk, Table 5): 9.0 mm |
| CCC1OC(=O)CC(O)C(C)C(OC2OC(C)C(O)C(N(C)C)C2O)C(CC=O)CC(C)C(=O)C=CC(C)=CC1CN=[N+]=[N-] (stereo not drawn) [YT107, 23-azido-23-deoxo-5-O-mycaminosyltylonolide] | – | – | 10.5 | 15.0 | 16.0 | 18.0 | 21.5 | Inhibition zone ([2]; 3 mg/6 mm disk, Table 4): 12.0 mm |
| CCC1OC(=O)CC(O)C(C)C(OC2OC(C)C(O)C(N(C)C)C2O)C(CC=O)CC(C)C(=O)C=CC(C)=CC1CI (stereo not drawn) [YT111] | – | – | 8.5 | 13.0 | 15.5 | 20.0 | 25.0 | Inhibition zone ([2]; 3 mg/6 mm disk, Table 4): 11.5 mm |
